# Experimental data published in US9974305B2, “Fungicidal or bactericidal composition, and method for controlling diseases” (NISSAN CHEMICAL INDUSTRIES, LTD., priority 2014, dated 2018).
# Like-named read-outs stand apart in the source and are kept apart here.
# Legend:
# Assay type in all cases: in vivo
# [1] = test system: cucumber gray mold fungus (Botrytis cinerea); experiment: Preventive test against gray mold on cucumber cotyledon leaves, spray treatment, preventive value and Colby expected value (Test Examples 1-4); details: single compound; for pest or weed control at 20 ppm / pest or weed control at 50 ppm / pest or weed control at 10 ppm: Botrytis cinerea, 72 h; for pest or weed control at 20 ppm: 20 ppm spray; for pest or weed control at 50 ppm: 50 ppm spray
# Experimental: Using the following compound listed in Table 2 (the active ingredient A) and the compound listed in Table 5 through Table 15 (active ingredient B), an agent was prepared in accordance with the above Formulation Example. This agent was diluted with water to a predetermined concentration to obtain a test solution. Then, cucumber (variety: Sagami-hanjiro) was planted in a plastic pot of 90 cm^3, and in the cotyledon stage, 5 ml of the obtained test solution, was sprayed by a spray gun and air-dried. Thereafter, the treated leaf was cut off and placed in a plastic container which filled approximately 0.5 cm in depth water. A suspension of conidia of cucumber gray mold fungus (Botrytis cinerea) and a dissolved PDA culture medium were mixed at a ratio of 1:1 (mass ratio), and the mixture was dropped to inoculate the treated leaf with 30 μl. After the inoculation, the plastic container was sealed and left at 20° C. for 3 days, the ratio of the formed lesion occupying the inoculated leaf was measured, and the preventive value was calculated in accordance with the following calculation formula. Preventive value=[1−(treated plot lesion area ratio/untreated plot lesion area ratio)]×100
# Further, from the preventive value at each agent concentration, synergy was calculated by using the Colby method (Colby S. R. 1976, Weeds 15, 20-22). The calculation method is as follows. E=X+Y−XY/100
# X: preventive value of A agent at x concentration
# Y: preventive value of B agent at y concentration
# E: theoretical value expected by treatment of the mixture of A agent and B agent.
# The obtained result is analyzed to be synergy if the observed value is larger than the expected value, to be antagonism if the expected value is larger than the observed value, and to be an additive effect if the observed value and the expected value are the same.
# Using the following compound listed in Table 2 (active ingredient A) and the following compound listed in Table 5 through Table 15 (active ingredient B) as active ingredients, a preventive test against gray mold was conducted in accordance with the method described in Test Example 1.
# Using the following compound listed in Table 2 (active ingredient A) and the following compound listed in Table 5 or Table 6 (active ingredient B) as active ingredients, a preventive test against gray mold was conducted in accordance with the method described in Test Example 1.
# Using the following compound listed in Table 2 (active ingredient A) and the following compound listed in Table 6 through Table 16 (active ingredient B) as active ingredients, a preventive test against gray mold was conducted in accordance with the method described in Test Example 1.
# [2] = test system: wheat glume blotch (Leptosphaeria nodorum); experiment: Efficacy test on wheat glume blotch, spray treatment and prevention test (Test Example 8); details: for pest or weed control at 5 ppm: single compound 5 ppm
# Experimental: An agent comprising the following compound listed in Table 2 (active ingredient A) and the following compound listed in Table 6, Table 11 or Table 15 (active ingredient B) as active ingredients, was prepared in accordance with the above Formulation Example. This agent was diluted with water to a predetermined concentration to obtain a test solution. Then, to seedlings of wheat (variety: Haruyutaka) at the 1-leaf stage, seeded in a pot with a diameter of 7 cm, with 5 seeds per pot, and grown for 7 days, the test solution was applied by a spray gun in an amount of 5 ml per pot, for treatment. One day after the treatment, a spore suspension (1×100,000 cfu/ml) of wheat glume blotch (Leptosphaeria nodorum) was spray-inoculated, and the pot was placed in a moist chamber set in temperature of 20° C. and humidity more than 95% RH for 48 hours. After placing the pot in a glass greenhouse for 7 days, the ratio of the formed lesion area occupying the inoculated leaves was measured, and the preventive value was calculated in accordance with the following formula. Preventive value=[1−(treated plot lesion area ratio/untreated plot lesion area ratio)]×100
# (§1) Further, from the preventive value for each agent concentration, synergy was calculated by using the Colby method (Colby S. R. 1976, Weeds 15, 20-22).
# [3] = test system: wheat glume blotch (Leptosphaeria nodorum); experiment: Efficacy test on wheat glume blotch, seed treatment (Test Example 9); details: single compound
# Experimental: An agent comprising the following compound listed in Table 2 (active ingredient A) and the compound listed in Table 11 (H35: active ingredient B) as active ingredients, was prepared in accordance with the above Formulation Example. This agent was diluted with water to a predetermined concentration to obtain a test solution. A predetermined amount of the test solution was put in a glass bottle of 5 ml, and 0.5 g (approximately 15 grains) of wheat seeds (variety: Haruyutaka) were added, stirred and air-dried. In each pot with a diameter of 7 cm having soil put therein, 3 grains were seeded and grown for 14 days. To seedlings of the wheat (variety: Haruyutaka) grown to a 1-leaf stage, a spore suspension (100,000 cfu/ml) of wheat glume blotch (Leptosphaeria nodorum) was spray-inoculated, and the pot was placed in a moist chamber set in temperature of 20° C. and humidity more than 95% RH for 48 hours. After placing the pot for 7 days in a glass greenhouse, the ratio of the formed lesion area occupying the inoculated leaves was measured, and the preventive value was calculated in accordance with the following formula. Preventive value=[1−(treated plot lesion area ratio/untreated plot lesion area ratio)]×100
# (§2) Further, from the preventive value at each agent concentration, synergy was calculated by using the Colby method (Colby S. R. 1976, Weeds 15, 20-22).
# [4] = test system: wheat powdery mildew (Blumeria graminis); experiment: Efficacy test on wheat powdery mildew, seed treatment (Test Example 10); details: wheat (Norin 61)
# Experimental: An agent comprising the following compound listed in Table 2 (active ingredient A) and the compound listed in Table 11 (H35: active ingredient B) as active ingredients, was prepared in accordance with the above Formulation Example. This agent was diluted with water to a predetermined concentration to obtain a test solution. A predetermined amount of test solution was put in a glass bottle of 5 ml, and 0.5 g (approximately 15 grains) of wheat seeds (variety: Norin 61) were added, stirred and air-dried. In each pot with a diameter of 7 cm and having soil put therein, 3 grains were seeded and grown for 14 days. To the wheat seedlings grown to the 1-leaf stage, a spore suspension (100,000 cfu/ml) of wheat powdery mildew (Blumeria graminis) was spray-inoculated. After placing the pot in a glass greenhouse for 10 days, the ratio of the formed lesion area occupying the inoculated leaves was measured, and the preventive value was calculated in accordance with the following formula. Preventive value=[1−(treated plot lesion area ratio/untreated plot lesion area ratio)]×100
# as §2
# [5] = test system: rice sheath blight fungus (Rhizoctonia solani); experiment: Efficacy test on rice sheath blight, spray treatment and prevention test (Test Examples 5-6); details: lesion height
# Experimental: An agent comprising the following compound listed in Table 2 (active ingredient A) and the compound listed in Table 6 (C17: active ingredient B) as active ingredients, was prepared in accordance with the above Formulation Example. The agent was diluted with water to a predetermined concentration to obtain a test solution. Then, in a plastic pot of 90 cm^3, rice (Nipponbare) was seeded by 5 grains in one place, and to the grown seedlings in 4 seedling phase, the test solution was applied by a spray gun in an amount of 5 ml per pot, for treatment.
# One day after the treatment, 1 g of mycelium flora of rice sheath blight fungus (Rhizoctonia solani) cultured in bran medium, was put by […] to a close-to-ground part of seedlings, and the pot was placed in a moist chamber set in temperature of 25° C. and humidity more than 95% RH for eight days. The height of the lesions which appeared in the highest position from the close-to-ground part (lesion height) was investigated, and the preventive value was calculated in accordance with the following formula. Preventive value=[1−(treated plot lesion height/untreated plot lesion height)]×100
# as §1
# Using the following compound listed in Table 2 (active ingredient A) and the compound listed in Table 6 (C17: active ingredient B) as active ingredients, a preventive test on rice sheath blight was conducted in accordance with the above Test Example 5.
# [6] = test system: cucumber downy mildew (Pseudoperenospora cubensis); experiment: Efficacy test on cucumber downy mildew, spray treatment and prevention test (Test Example 7); details: lesion area ratio
# Experimental: An agent comprising the following compound listed in Table 2 (active ingredient A) and the compound listed in Table 6 (C40: active ingredient B) as active ingredients, was prepared in accordance with the above Formulation Example. This agent was diluted with water to a predetermined concentration to obtain a test solution. Then, to seedlings of cucumber (variety: Sagami-hanjiro) at 1.5-leaf stage grown in a pot with a diameter of 7 cm, the test solution was applied by a spray gun in an amount of 10 ml per pot, for treatment. One day after the treatment, a spore suspension (2×100,000 cfu/ml) of cucumber downy mildew (Pseudoperenospora cubensis), was spray-inoculated, and the pot was placed in a moist chamber set in temperature of 20° C. and humidity more than 95% RH for 24 hours. After placing the pot in a glass greenhouse for 6 days, the ratio of the formed lesion area occupying the inoculated leaves was measured, and the preventive value was calculated in accordance with the following formula. Preventive value=[1−(treated plot lesion area ratio/untreated plot lesion area ratio)]×100
# as §1
# [7] = test system: cucumber powdery mildew (Sphaerotheca cucurbitae); experiment: Efficacy test on cucumber powdery mildew, irrigation treatment (Test Example 11); details: cucumber (Sagami-hanjiro)
# Experimental: An agent comprising the following compound listed in Table 2 (active ingredient A) and the compound listed in Table 6 (C18: active ingredient B), was prepared in accordance with the above Formulation Example. This agent was diluted with water to a predetermined concentration to obtain a test solution. 5 ml of the test solution was irrigated by a pipette to the close-to-ground part of cucumber seedlings at the 1 leaf stage (variety: Sagami-hanjiro), grown in a styrol cup with a diameter of 10 cm, and next day, the seedlings were transplanted to the to 4 cun pots. Then, after cultivation for 7 days in a glass greenhouse, to the first true leaf of the cucumber, a spore suspension (100,000 cfu/ml) of cucumber powdery mildew (Sphaerotheca cucurbitae) was inoculated by spraying. After 10 days in a glass greenhouse, the ratio of the formed lesion area occupying the inoculated leaves was measured, and the preventive value was calculated in accordance with the following formula. Preventive value=[1−(treated plot lesion area ratio/untreated plot lesion area ratio)]×100
# as §2
# [8] = Parastagonospora nodorum, spray, lesion area ratio, read-out: Preventive value
# [9] = single compound 10 ppm, spray, lesion area ratio
# [10] = Test Example 4, 10 ppm spray, read-out: Preventive value
smiles,measurement,setting,value
"CC(C)(C)C(O)(CCc1ccc(Cl)cc1)Cn1cncn1 (centres unmarked) [Compound No. H35, tebuconazole, reference compound]",pest or weed control at 20 ppm,[1]; Test Example 1,45%
same,pest or weed control at 20 ppm,[1]; Test Example 2,50%
same,pest or weed control at 5 ppm,[2]; [8],45%
same,Preventive value,[3]; processing amount 1 mg/1 g seed,60
same,Preventive value,[3]; processing amount 5 mg/1 g seed,75
same,Preventive value,[4]; processing amount 0.025 mg/1 g seed,80
same,Preventive value,[4]; processing amount 0.1 mg/1 g seed,95
"Cc1nc(C(F)(F)F)c(C(=O)Nc2c(Br)cc(OC(F)(F)F)cc2Br)s1 [Compound No. C17, thifluzamide, reference compound]",pest or weed control at 50 ppm,"[1]; Test Example 1, read-out: Preventive value",20%
same,pest or weed control at 50 ppm,"[1]; Test Example 2, read-out: Preventive value",25%
same,Preventive value,"[5]; Test Example 5, single compound 5 ppm",69
same,Preventive value,"[5]; Test Example 6, single compound 5 ppm",75
CC(C)ON=C(CNC(=O)c1ccccc1C(F)(F)F)c1ncc(Cl)c(S(C)(=O)=O)c1Cl [compound 32],Preventive value,"[1]; Test Example 2, 1 ppm spray",94
same,Preventive value,"[1]; Test Example 3, 1 ppm spray",90
same,Preventive value,"[1]; Test Example 4, 1 ppm spray",80
same,Preventive value,"[5]; Test Example 6, single compound 250 ppm",6
same,Preventive value,[6]; single compound 250 ppm,0
same,Preventive value,"[2]; single compound 3 ppm, spray, lesion area ratio",60
same,Preventive value,[2]; [9],85
same,Preventive value,[7]; concentration 500 ppm,30
"Cc1c(Br)c2ccc(F)cc2n1S(=O)(=O)c1ncn(S(=O)(=O)N(C)C)n1 [C40, amisulbrom]",Preventive value,"[1]; Test Example 1, 100 ppm spray",0
same,Preventive value,"[1]; Test Example 2, 100 ppm spray",0
same,Preventive value,[6]; single compound 0.5 ppm,75
"CO/N=C(/C(=O)OC)c1ccccc1COc1ccccc1C [C28, kresoxim-methyl]",pest or weed control at 10 ppm,"[1]; Test Example 1, 10 ppm spray, read-out: Preventive value",45%
same,pest or weed control at 10 ppm,"[1]; Test Example 2, 10 ppm spray, read-out: Preventive value",56%
same,pest or weed control at 5 ppm,[2]; [8],45%
"COC(=O)N(OC)c1ccccc1COc1ccn(-c2ccc(Cl)cc2)n1 [C33, pyraclostrobin, reference compound]",pest or weed control at 10 ppm,[1]; [10],50%
same,pest or weed control at 1 ppm,"[2]; Parastagonospora nodorum, single compound 1 ppm, spray, lesion area ratio, read-out: Preventive value",65%
"CNC(=O)C(OC)c1ccccc1COc1cc(C)ccc1C (centres unmarked) [C29, mandestrobin, reference compound]",Preventive value,"[1]; Test Example 4, 10 ppm spray",45
same,Preventive value,[2]; [9],50
"COC(=O)NCc1cc(/C(C)=N/OCc2cccc(C)n2)ccc1Cl [C36, pyribencarb-methyl, reference compound]",Preventive value,"[1]; Test Example 4, 10 ppm spray",60
same,Preventive value,"[2]; single compound 25 ppm, spray, lesion area ratio",45
"CC1(C)CCC(Cc2ccc(Cl)cc2)C1(O)Cn1cncn1 (centres unmarked) [H23, metconazole, reference compound]",pest or weed control at 10 ppm,[1]; [10],60%
same,pest or weed control at 5 ppm,[2]; [8],45%
"CCCCC(C#N)(Cn1cncn1)c1ccc(Cl)cc1 (centres unmarked) [H24, myclobutanil, reference compound]",pest or weed control at 10 ppm,[1]; [10],60%
same,pest or weed control at 100 ppm,"[2]; Parastagonospora nodorum, single compound 100 ppm, spray, lesion area ratio, read-out: Preventive value",70%
"CCCN(CCOc1c(Cl)cc(Cl)cc1Cl)C(=O)n1ccnc1 [H29, prochloraz, reference compound]",pest or weed control at 10 ppm,"[1]; read-out: Preventive value, Test Example 4, 10 ppm spray",50%
same,pest or weed control at 50 ppm,"[2]; Parastagonospora nodorum, read-out: Preventive value",45%
"CO/C=C(/C(=O)OC)c1ccccc1Oc1cc(Oc2ccccc2C#N)ncn1 [Compound No. C18, azoxystrobin, reference compound]",Preventive value,"[1]; Test Example 1, 3 ppm spray",30
same,Preventive value,"[1]; Test Example 2, 3 ppm spray",28
same,Preventive value,"[2]; single compound 1 ppm, spray, lesion area ratio",65
same,Preventive value,[7]; concentration 6.3 ppm,50
